Literature values, collected in patent US8916150B2 (priority 2009, dated 2014).

Columns and labels:
[1] = biological target: LC of BoNT-A (Clostridium botulinum, UniProt P0DPI1)
[2] = in vivo
[3] = tested on: botulinum toxin light chain (LC)

LC of BoNT-A, sequence (P0DPI1 2-448 limits assumed): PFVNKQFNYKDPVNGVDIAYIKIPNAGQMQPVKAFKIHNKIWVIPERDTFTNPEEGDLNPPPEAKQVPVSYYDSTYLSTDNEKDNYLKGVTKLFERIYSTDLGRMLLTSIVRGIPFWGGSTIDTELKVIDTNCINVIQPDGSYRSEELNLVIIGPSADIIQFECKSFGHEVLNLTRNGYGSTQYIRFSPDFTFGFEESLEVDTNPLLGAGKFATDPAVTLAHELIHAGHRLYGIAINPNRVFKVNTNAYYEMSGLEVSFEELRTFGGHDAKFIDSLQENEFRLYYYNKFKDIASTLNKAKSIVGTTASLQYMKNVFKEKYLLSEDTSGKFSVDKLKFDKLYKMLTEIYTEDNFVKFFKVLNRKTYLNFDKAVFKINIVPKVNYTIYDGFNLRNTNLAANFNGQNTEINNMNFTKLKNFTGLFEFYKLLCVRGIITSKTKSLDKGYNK

[Cl-].[Cl-].[Zn+2] [zinc chloride]
effect on autocatalytic fragmentation of LC [1]: enhanced

CC(=O)[O-].CC(=O)[O-].[Zn+2] [zinc acetate]
nausea and vomiting after single dose [2]: induces nausea and vomiting

O=C(O)CN(CCN(CC(=O)O)CC(=O)O)CC(=O)O [EDTA, ethylenediaminetetraacetate]
effect on LC enzymatic activity on removal of Zn2+ [3]: completely abolishes enzymatic activity
